Calls of active or inactive are those of the source. The calls are words filed in the database; no cut-off is given here.
Experiments:
Mus musculus [1] = assay: In vivo PROTAC activity at CRBN/MNK1 in human MV4-11 cells xenografted in nude female NSG mouse assessed as reduction in phosphorylated eIF4E level at 20 mg/kg, ip qd administrated for 16 days by Western blot analysis; type: functional, organism-based; details: time 16.0 day
Mus musculus [2] = assay: In vivo PROTAC activity at CRBN/MNK1 in human MV4-11 cells xenografted in nude female NSG mouse assessed as induction of MNK1 degradation at 20 mg/kg, ip qd administrated for 16 days by Western blot analysis; type: functional, organism-based; details: time 16.0 day
MV4-11 [3] = assay: Anti-proliferative activity against human MV4-11 cells measured after 72 hrs by CCK8 assay; details: MV4-11, 72 h
MOLM-13 = assay: Anti-proliferative activity against human MOLM-13 cells measured after 72 hrs by CCK8 assay; details: MOLM-13, 72 h
MV4-11 [4] = assay: Downregulation of SUFU expression level in human MV4-11 cells at 300 nM incubated for 24 hrs by DIA-based quantitative proteomics analysis; type: functional, cell-based
MV4-11 [5] = assay: Effect on GSPT1 expression in human MV4-11 cells at 10 to 1000 nM incubated for 24 hrs by immunoblot analysis; type: functional, cell-based; details: dose 10-1000 nM
MV4-11 [6] = assay: Effect on IKZF1 expression in human MV4-11 cells at 10 to 1000 nM incubated for 24 hrs by immunoblot analysis; type: functional, cell-based; details: dose 10-1000 nM
MV4-11 [7] = assay: Induction of MNK2 degradation in human MV4-11 cells at 10 to 1000 nM incubated for 24 hrs by immunoblot analysis; type: cell-based; details: dose 10-1000 nM
MV4-11 [8] = assay: Upregulation of cell cycle regulation related protein expression in human MV4-11 cells by GO analysis; type: functional, cell-based
MV4-11 [9] = assay: Upregulation of G2/M transition pathway related protein expression in human MV4-11 cells by GO analysis; type: functional, cell-based
MV4-11 [10] = assay: Upregulation of apoptosis pathway related protein expression in human MV4-11 cells by GO analysis; type: functional, cell-based
MV4-11 [11] = assay: Upregulation of protein translation pathway related protein expression in human MV4-11 cells by GO analysis; type: functional, cell-based
MV4-11 [12] = assay: Upregulation of ubiquitin-mediated protein degradation pathway related protein expression in human MV4-11 cells by GO analysis; type: functional, cell-based
MV4-11 [13] = assay: Upregulation of mTOR pathway related protein expression in human MV4-11 cells by GO analysis; type: functional, cell-based
MV4-11 [14] = assay: Upregulation of ubiquitin-mediated proteolysis pathway related protein expression in human MV4-11 cells by KEGG analysis; type: functional, cell-based
MV4-11 [15] = assay: Induction of apoptosis in human MV4-11 cells assessed as viable cells at 30 nM incubated for 24 hrs by Annexin V-FITC/PI dual staining based flow cytometric analysis (reference value: 94.9 %); type: functional; details: read-out: Activity
MV4-11 [16] = assay: Induction of apoptosis in human MV4-11 cells assessed as early apoptotic cells at 30 nM incubated for 24 hrs by Annexin V-FITC/PI dual staining based flow cytometric analysis (reference value: 3.42 %); type: functional
MV4-11 [17] = assay: Induction of apoptosis in human MV4-11 cells assessed as necrotic cells at 100 nM incubated for 24 hrs by Annexin V-FITC/PI dual staining based flow cytometric analysis (reference value: 0.16 %); type: functional
MV4-11 [18] = assay: Induction of apoptosis in human MV4-11 cells assessed as late apoptotic cells at 300 nM incubated for 24 hrs by Annexin V-FITC/PI dual staining based flow cytometric analysis (reference value: 1.48 %); type: functional
MV4-11 [19] = assay: Induction of apoptosis in human MV4-11 cells assessed as necrotic cells at 300 nM incubated for 24 hrs by Annexin V-FITC/PI dual staining based flow cytometric analysis (reference value: 0.16 %); type: functional
MV4-11 [20] = assay: Induction of cell cycle arrest in human MV4-11 cells assessed as increase in accumulation of cells at G1 phase at 30 to […] incubated for 24 hrs by PI staining based flow cytometric analysis; type: functional; details: dose lower 30.0 µM
[21] = Cmax in male Sprague-Dawley rat at 5 mg/kg, ip measured up to 24 hrs by LC-MS analysis; type: ADME, organism-based; details: in vivo
[22] = AUC (0 to t) in male Sprague-Dawley rat at 1 mg/kg, iv measured up to 24 hrs by LC-MS analysis; type: ADME, organism-based; details: in vivo
[23] = AUC (0 to t) in male Sprague-Dawley rat at 20 mg/kg, po measured up to 24 hrs by LC-MS analysis; type: ADME, organism-based; details: in vivo
[24] = AUC (0 to t) in male Sprague-Dawley rat at 5 mg/kg, ip measured up to 24 hrs by LC-MS analysis; type: ADME, organism-based; details: in vivo
[25] = Half life in male Sprague-Dawley rat at 20 mg/kg, po measured up to 24 hrs by LC-MS analysis; type: ADME, organism-based; details: in vivo
[26] = Clearance in male Sprague-Dawley rat at 1 mg/kg, iv measured up to 24 hrs by LC-MS analysis; type: ADME, organism-based; details: in vivo
[27] = Oral bioavailability in male Sprague-Dawley rat at 20 mg/kg measured up to 24 hrs by LC-MS analysis; type: ADME, organism-based; details: in vivo
[28] = Hepatotoxicity in nude female NSG mouse xenografted with human MV4-11 cells assessed as change in serum ALT level at 20 mg/kg, ip qd administrated for 16 days; type: toxicity, organism-based; details: in vivo, 384 h, time 16 day
[29] = Hepatotoxicity in nude female NSG mouse xenografted with human MV4-11 cells assessed as change in serum TBA level at 20 mg/kg, ip qd administrated for 16 days; type: toxicity, organism-based; details: in vivo, 384 h, time 16 day
[30] = Toxicity in male ICR mouse assessed as histopathological change in liver at 100 mg/kg, ip measured after 14 days by hematoxylin and eosin staining based analysis; type: organism-based; details: in vivo, 336 h, time 14 day
[31] = Toxicity in male ICR mouse assessed as histopathological change in spleen at 100 mg/kg, ip measured after 14 days by hematoxylin and eosin staining based analysis; type: organism-based; details: in vivo, 336 h, time 14 day
[32] = Toxicity in male ICR mouse assessed as histopathological change in lung at 100 mg/kg, ip measured after 14 days by hematoxylin and eosin staining based analysis; type: organism-based; details: in vivo, 336 h, time 14 day
[33] = Toxicity in male ICR mouse assessed as change in serum DBIL level at 100 mg/kg, ip measured after 14 days; type: organism-based; details: in vivo, 336 h, time 14 day
[34] = Toxicity in male ICR mouse assessed as change in serum TBA level at 100 mg/kg, ip measured after 14 days; type: organism-based; details: in vivo, 336 h, time 14 day
[35] = Toxicity in male ICR mouse assessed as change in serum creatinine level at 100 mg/kg, ip measured after 14 days; type: organism-based; details: in vivo, 336 h, time 14 day
[36] = Toxicity in nude female NSG mouse xenografted with human MV4-11 cells assessed as change in serum AST level at 20 mg/kg, ip qd administrated for 16 days; type: organism-based; details: in vivo, 384 h, time 16 day
[37] = Toxicity in nude female NSG mouse xenografted with human MV4-11 cells assessed as change in serum uric acid level at 20 mg/kg, ip qd administrated for 16 days; type: organism-based; details: in vivo, 384 h, time 16 day
[38] = Toxicity in nude female NSG mouse xenografted with human MV4-11 cells assessed as change in serum BUN level at 20 mg/kg, ip qd administrated for 16 days; type: organism-based; details: in vivo, 384 h, time 16 day
[39] = Toxicity in nude female NSG mouse xenografted with human MV4-11 cells assessed as change in serum creatinine level at 20 mg/kg, ip qd administrated for 16 days; type: organism-based; details: in vivo, 384 h, time 16 day

**Q.** For O=C1CCC(N2Cc3c(NC(=O)CCCCCC(=O)N4CCC(C(=O)Nc5ncc(-c6ccccc6)s5)CC4)cccc3C2=O)C(=O)N1 (stereo not given), which Activity (Mus musculus [1]) is on record?
**A.** Active

**Q.** What about the Activity (Mus musculus [2]) of the same compound?
**A.** Active

**Q.** What about the IC50 (MV4-11 [3]) of the same compound?
**A.** 45 nM

**Q.** What about the IC50 (MOLM-13) of the same compound?
**A.** 610 nM

**Q.** What about the Activity (MV4-11 [4]) of the same compound?
**A.** Active

**Q.** And the Activity (MV4-11 [5])?
**A.** No effect

**Q.** What about the Activity (MV4-11 [6]) of the same compound?
**A.** No effect

**Q.** And the Activity (MV4-11 [7])?
**A.** inactive

**Q.** What about the Activity (MV4-11 [8]) of the same compound?
**A.** Active

**Q.** What about the Activity (MV4-11 [9]) of the same compound?
**A.** Active

**Q.** What about the Activity (MV4-11 [10]) of the same compound?
**A.** Active

**Q.** What about the Activity (MV4-11 [11]) of the same compound?
**A.** Active

**Q.** And the Activity (MV4-11 [12])?
**A.** Active

**Q.** What about the Activity (MV4-11 [13]) of the same compound?
**A.** Active

**Q.** What about the Activity (MV4-11 [14]) of the same compound?
**A.** Active

**Q.** What about the viability at 0.03 µM (MV4-11 [15]) of the same compound?
**A.** 85.8%

**Q.** And the Activity (MV4-11 [16])?
**A.** 6.46%

**Q.** What about the Activity (MV4-11 [17]) of the same compound?
**A.** 0.69%

**Q.** What about the Activity (MV4-11 [18]) of the same compound?
**A.** 42.1%

**Q.** And the Activity (MV4-11 [19])?
**A.** 1.36%

**Q.** And the Activity (MV4-11 [20])?
**A.** Active

**Q.** What about the Cmax [21] of the same compound?
**A.** 1970 ng/mL

**Q.** What about the AUC(0-t) at 24 h [22] of the same compound?
**A.** 7020 ng·h/mL

**Q.** What about the AUC(0-t) at 24 h [23] of the same compound?
**A.** 2950 ng·h/mL

**Q.** And the AUC(0-t) at 24 h [24]?
**A.** 9630 ng·h/mL

**Q.** What about the half-life [25] of the same compound?
**A.** 426 min

**Q.** And the clearance [26]?
**A.** 2.38 mL/min/kg

**Q.** What about the bioavailability [27] of the same compound?
**A.** 2.1%

**Q.** And the Activity [28]?
**A.** Non-toxic

**Q.** What about the Activity [29] of the same compound?
**A.** Non-toxic

**Q.** And the Activity [30]?
**A.** Non-toxic

**Q.** What about the Activity [31] of the same compound?
**A.** Non-toxic

**Q.** And the Activity [32]?
**A.** Non-toxic

**Q.** What about the Activity [33] of the same compound?
**A.** Non-toxic

**Q.** What about the Activity [34] of the same compound?
**A.** Non-toxic

**Q.** What about the Activity [35] of the same compound?
**A.** Non-toxic

**Q.** What about the Activity [36] of the same compound?
**A.** Non-toxic

**Q.** And the Activity [37]?
**A.** Non-toxic

**Q.** And the Activity [38]?
**A.** Non-toxic

**Q.** And the Activity [39]?
**A.** Non-toxic

Reference: ChEMBL document CHEMBL6177991, “Discovery of P11-2: A Potent First-in-Class MNK1-Targeting PROTAC Degrader for the Treatment of Cancer” (J Med Chem, 2025)
